Results taken from ChEMBL document CHEMBL1130559, “The synthesis and antitumor evaluation of unsymmetrical bis-imides” (Bioorg Med Chem Lett, 1997).

What was measured:
Nucleic Acid [1] = experiment: In vitro DNA poly-dAdT binding by ethidium bromide displacement; type: nucleic-acid assay
Nucleic Acid [2] = experiment: In vitro DNA poly-dGdC binding by ethidium bromide displacement; type: nucleic-acid assay
L1210 = experiment: In vitro 50% inhibitory activity against L1210 murine leukemia; type: functional, cell-based; conditions: Mus musculus
Mus musculus [3] = experiment: Compound was evaluated in vivo for the maximum tolerated dose (MTD) against MX-1 (breast) human solid tumors implanted in nude mice; type: functional
Mus musculus [4] = experiment: Compound was evaluated in vivo for the percent tumor growth inhibition against human solid tumors implanted in nude mice DLD-2 (colon), iv; type: functional
Mus musculus [5] = experiment: Compound was evaluated in vivo for the percent tumor growth inhibition against human solid tumors implanted in nude mice MX-1 (breast), iv; type: functional
Mus musculus [6] = experiment: Compound was evaluated in vivo for the maximum tolerated dose against human solid tumors implanted in nude miceLX-1 (lung); type: functional
Mus musculus [7] = experiment: Compound was evaluated in vivo for the percent tumor growth inhibition against human solid tumors implanted in nude mice LX-1 (lung), iv; type: functional
Mus musculus [8] = experiment: Compound was evaluated in vivo for the maximum tolerated dose against human solid tumors implanted in nude mice MX-1 (breast); type: functional
Mus musculus [9] = experiment: Compound was evaluated in vivo for the maximum tolerated dose against human solid tumors implanted in nude miceDLD-2 (colon); type: functional
[10] = Solubility in water; type: physicochemical; conditions: read-out: S
Mus musculus [11] = experiment: Compound was evaluated in vivo for the maximum tolerated dose against the following human solid tumors implanted in nude miceLX-1 (lung); type: functional
Mus musculus [12] = experiment: Compound was evaluated in vivo for the maximum tolerated dose against the following human solid tumors implanted in nude miceDLD-2 (colon); type: functional
Mus musculus [13] = experiment: Compound was evaluated in vivo for the maximum tolerated dose against the following human solid tumors implanted in nude miceMX-1 (breast); type: functional
Mus musculus [14] = experiment: Compound was evaluated in vivo for the maximum tolerated dose against the following human solid tumors implanted in nude mice MX-1 (breast); type: functional

| SMILES | IC50 (Nucleic Acid [1]) [nM] | IC50 (Nucleic Acid [2]) [nM] | IC50 (L1210) [nM] | solubility [10] [mg/mL] | further results |
| --- | --- | --- | --- | --- | --- |
| COc1ccc2cc3c4c(cccc4c2c1)C(=O)N([C@H](C)CNCCNC[C@@H](C)N1C(=O)c2cccc4cc([N+](=O)[O-])cc(c24)C1=O)C3=O | 800 | 130 | 250 | – | – |
| CS(=O)(=O)O.CS(=O)(=O)O.Cc1cnc2c(c1)cc1c3c(cc([N+](=O)[O-])cc32)C(=O)N([C@H](C)CNCCNC[C@@H](C)N2C(=O)c3cccc4cc([N+](=O)[O-])cc(c34)C2=O)C1=O | 610 | 73 | 41 | – | MTD (Mus musculus [3]): 6 mg/kg |
| C[C@H](CNCCNC[C@@H](C)N1C(=O)c2cccc3c2c(cc2ccc(C(F)(F)F)cc23)C1=O)N1C(=O)c2cccc3cc([N+](=O)[O-])cc(c23)C1=O | 2550 | 170 | 450 | – | – |
| C[C@H](CNCCNC[C@@H](C)N1C(=O)c2cccc3c2c(cc2cc(F)cnc23)C1=O)N1C(=O)c2cccc3cc([N+](=O)[O-])cc(c23)C1=O | 1420 | 59 | 64 | – | – |
| CS(=O)(=O)O.CS(=O)(=O)O.C[C@H](CNCCNC[C@@H](C)N1C(=O)c2ccc3c4c(ccc(c24)C1=O)CC3)N1C(=O)c2cccc3cc([N+](=O)[O-])cc(c23)C1=O | 1570 | 110 | 75 | 29 | Inhibition (Mus musculus [4]): 98%; Inhibition (Mus musculus [5]): 97%; MTD (Mus musculus [6]): 10 mg/kg; Inhibition (Mus musculus [7]): 95%; MTD (Mus musculus [8]): 12.5 mg/kg; MTD (Mus musculus [9]): 12.5 mg/kg |
| C[C@H](CNCCNC[C@@H](C)N1C(=O)c2cccc3c2c(cc2ccc(F)cc23)C1=O)N1C(=O)c2cccc3cc([N+](=O)[O-])cc(c23)C1=O | 1510 | 110 | 310 | – | – |
| C[C@H](CNCCNC[C@@H](C)N1C(=O)c2cc([N+](=O)[O-])cc3c2c(cc2ccncc23)C1=O)N1C(=O)c2cccc3cc([N+](=O)[O-])cc(c23)C1=O | 880 | 62 | 51 | – | – |
| C[C@H](CNCCNC[C@@H](C)N1C(=O)c2cccc3c2c(cc2ccccc23)C1=O)N1C(=O)c2cccc3cc([N+](=O)[O-])cc(c23)C1=O | 1020 | 970 | 420 | – | – |
| CS(=O)(=O)O.CS(=O)(=O)O.C[C@H](CNCCNC[C@@H](C)N1C(=O)c2cccc3c2c(cc2ccncc23)C1=O)N1C(=O)c2cccc3cc([N+](=O)[O-])cc(c23)C1=O | 1200 | 88 | 35 | 65 | MTD (Mus musculus [11]): 6 mg/kg; Inhibition (Mus musculus [4]): 99%; MTD (Mus musculus [12]): 6 mg/kg; Inhibition (Mus musculus [7]): 94%; MTD (Mus musculus [13]): 6 mg/kg |
| C[C@H](CNCCNC[C@@H](C)N1C(=O)c2cc([N+](=O)[O-])cc3c2c(cc2cccnc23)C1=O)N1C(=O)c2cccc3cc([N+](=O)[O-])cc(c23)C1=O | 1570 | 85 | 24 | – | – |
| CS(=O)(=O)O.CS(=O)(=O)O.C[C@H](CNCCNC[C@@H](C)N1C(=O)c2cccc3c2c(cc2cccnc23)C1=O)N1C(=O)c2cccc3cc([N+](=O)[O-])cc(c23)C1=O | 1080 | 73 | 250 | > 35.6 | MTD (Mus musculus [3]): 6.2 mg/kg |
| CS(=O)(=O)O.CS(=O)(=O)O.C[C@H](CNCCNC[C@@H](C)N1C(=O)c2cccc3cc([N+](=O)[O-])cc(c23)C1=O)N1C(=O)c2cccc3cc([N+](=O)[O-])cc(c23)C1=O [BISNAFIDE DIMESYLATE] | 1000 | 40 | 34 | 3.5 | MTD (Mus musculus [14]): 10 mg/kg; MTD (Mus musculus [11]): 10 mg/kg; Inhibition (Mus musculus [4]): 99%; Inhibition (Mus musculus [5]): >96%; MTD (Mus musculus [12]): 10 mg/kg; Inhibition (Mus musculus [7]): 96% |
